# Target: T1, human bradykinin B2 receptor (hB2R) (Homo sapiens, UniProt P30411)
# T1 sequence (P30411 1-391): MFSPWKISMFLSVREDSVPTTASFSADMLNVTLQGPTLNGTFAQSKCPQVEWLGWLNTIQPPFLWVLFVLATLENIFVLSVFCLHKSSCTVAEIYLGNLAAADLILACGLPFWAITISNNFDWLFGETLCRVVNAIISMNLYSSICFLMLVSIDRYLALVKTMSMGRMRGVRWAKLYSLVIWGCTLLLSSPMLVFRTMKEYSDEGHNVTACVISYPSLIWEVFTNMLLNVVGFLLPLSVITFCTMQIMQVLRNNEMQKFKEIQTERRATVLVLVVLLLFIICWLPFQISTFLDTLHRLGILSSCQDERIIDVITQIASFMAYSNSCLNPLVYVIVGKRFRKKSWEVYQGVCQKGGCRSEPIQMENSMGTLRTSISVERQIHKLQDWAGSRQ
# Assay: human bradykinin B2 receptor calcium mobilization (hB2R-CaM) assay
# Assay type: cell-based
# Details: antagonism of bradykinin (EC80) induced calcium mobilization, B2 Bradykinin Receptor Stable Cell Line HTS041C, 25 min pre-incubation; read-out: IC50-value towards human bradykinin B2 receptor (hB2R)
# From the text: The following cell-based human bradykinin B2 receptor calcium mobilization (hB2R-CaM) assay was used to determine the antagonistic activity of compounds selected from the example compounds Nos. 1 to 107 towards human bradykinin B2 receptor (hB2R). The assay is defined herein as a standard in vitro B2 receptor activity assay, which can be used to determine IC50 values of the compounds according to the present invention, e. g. the compounds shown in Examples 1-13.
# The antagonistic activity of compounds according to the present invention was investigated with the hB2R-CaM assay using the B2 Bradykinin Receptor Stable Cell Line HTS041C (Eurofins, St. Charles MO) and the FLIPR Calcium 6 Assay Kit (Molecular Devices, Wokingham, UK) according to the instructions of the providers. CaM assay measurements were performed with a Flexstation 3 System (Molecular Devices) which allows the precise addition of compounds (B2R antagonists) and bradykinin (B2R agonist) to the cells and adjacent continuous recording of the time-dependent CaM assay signals.
# HTS041C cells were cultured in high glucose DMEM cell culture medium (Lonza) supplemented with 10% heat-inactivated FBS (PAN Biotech), 10 mM HEPES, Penicillin/Streptomycin (200 U/mL, 200 μg/mL), lx non-essential amino acids (Lonza), and 250 μg/mL G418 (Invivogen) in cell incubator at 37° C. in a 5% CO2 atmosphere. One day before the CaM assay experiments cells were seeded in 200 μL DMEM cell culture medium with reduced FBS (5%) and without G418 on clear bottom black 96 well plates (ThermoFisher #165305). Cell starvation was carried out by incubation (37° C., 5% CO2) of 70.000 cells/well for 24 h to 28 h. Immediately prior calcium dye-loading the medium was carefully aspirated and cells were washed with Hank's balanced salt solution (HBSS, Gibco) containing Ca^2+, Mg^2+ and 20 mM HEPES, adjusted to pH 7.4 (HBSS+).
# For calcium dye-loading one FLIPR 6 assay aliquot was dissolved in 20 mL HBSS+. 150 μL of the dye loading solution was added to cell plate and incubated for 120 min at 37° C. and 5% CO2. After dye loading the cell plate was immediately transferred to the pre-warmed (37° C.) Flexstation 3 System for CaM assaying.
# Freshly prepared compound (B2 receptor antagonists) dilution series (8 pt, n=2) and bradykinin (B2 receptor agonist) solution in non-binding plates (Costar) were transferred to the Flexstation System (source plate) shortly before starting the experiment. Bradykinin was added in EC80 concentration determined in n>3 preliminary experiments with 8 pt concentration response curves (n=8)). CaM assay was executed by Flexstation 3 System starting with recording of calcium-sensitive dye fluorescence in bottom-read Flex modus with ex/em=485 nm/525 nm, cut off(em)=515 nm After 20 s, 50 μL of 4-fold concentrated compound dilutions were added to the cells resulting in a final DMSO (Sigma) concentration of 0.1% in the cell plate. CaM signals were monitored for 80 s after additions for detection of potential agonistic activities. Prior to bradykinin stimulus compound- and vehicle-treated cells were incubated for 25 min at 37° C. within the Flexstation System. Then 50 μL of a 5-fold concentrated bradykinin solution (HBSS+, 0.1% DMSO) was added to trigger CaM signals (Read out: Max-Min values) which were measured for 80 s post bradykinin stimulus.
# IC50 determinations were performed by 4 parameter logistic model curve fitting of the 8 pt (n=2) compound concentration response curves using XLFIT (IDBS) software.
row,SMILES,IC50 [nM]
1,"CCN1C(=O)C(C)N([C@@H](C)c2cc(F)cc(Cl)c2COc2cccc3c(-n4cc(F)cn4)cc(C)nc23)C1=O (single isomer, unassigned) [Compound No. 2]",11 to 100
2,"CCN1C(=O)C(C)N([C@@H](C)c2cc(F)cc(Cl)c2COc2cccc3c(-n4cc(F)cn4)cc(C)nc23)C1=O (single isomer, unassigned) [compound 29]",11 to 100
3,"Cc1cc(-n2cc(F)cn2)c2cccc(OCc3c(Cl)cc(F)cc3[C@H](C)N3C(=O)N(C4CC4)C(=O)C3C)c2n1 (single isomer, unassigned) [compound 30]",≤ 10
4,"Cc1cc(-n2cc(F)cn2)c2cccc(OCc3c(Cl)cc(F)cc3[C@H](C)N3C(=O)N(C4CC4)C(=O)C3C)c2n1 (single isomer, unassigned) [compound 31]",101 to 500
5,"Cc1cc(-n2cc(F)cn2)c2cccc(OCc3c(Cl)cc(F)cc3[C@H](C)N3C(=O)COCC3C)c2n1 (single isomer, unassigned) [compound 32]",11 to 100
6,"Cc1cc(-n2cc(F)cn2)c2cccc(OCc3c(Cl)cc(F)cc3[C@H](C)N3CCOC(C)C3=O)c2n1 (single isomer, unassigned) [compound 35]",11 to 100
7,"Cc1cc(-c2ncnn2C)c2cccc(OCc3c(Cl)cc(F)cc3[C@H](C)N3CCOC(C)C3=O)c2n1 (single isomer, unassigned) [compound 48]",≤ 10
8,"COC1CN([C@@H](C)c2cc(F)cc(Cl)c2COc2cccc3c(-n4cc(F)cn4)cc(C)nc23)C(=O)O1 (single isomer, unassigned) [compound 51]",11 to 100
9,"COC1CN([C@@H](C)c2cc(F)cc(Cl)c2COc2cccc3c(-n4cc(F)cn4)cc(C)nc23)C(=O)O1 (single isomer, unassigned) [compound 52]",101 to 500
10,"CCN1C(=O)C(C)N([C@@H](C)c2cc(F)cc(Cl)c2COc2cccc3c(-c4ncnn4C)cc(C)nc23)C1=O (single isomer, unassigned) [compound 53]",≤ 10
11,"CCN1C(=O)C(C)N([C@@H](C)c2cc(F)cc(Cl)c2COc2cccc3c(-c4ncnn4C)cc(C)nc23)C1=O (single isomer, unassigned) [compound 54]",11 to 100
12,"Cc1cc(-c2ncnn2C)c2cccc(OCc3c(Cl)cc(F)cc3[C@H](C)N3C(=O)N(C4CC4)C(=O)C3C)c2n1 (single isomer, unassigned) [compound 55]",≤ 10
13,"Cc1cc(-c2ncnn2C)c2cccc(OCc3c(Cl)cc(F)cc3[C@H](C)N3C(=O)N(C4CC4)C(=O)C3C)c2n1 (single isomer, unassigned) [compound 56]",11 to 100
14,"Cc1cc(-n2cc(F)cn2)c2cccc(OCc3c(Cl)cc(F)cc3[C@H](C)N3CCC(C)C3=O)c2n1 (single isomer, unassigned) [compound 58]",11 to 100
15,"Cc1cc(-c2ncnn2C)c2cccc(OCc3c(Cl)cc(F)cc3[C@H](C)N3CCC(C)C3=O)c2n1 (single isomer, unassigned) [compound 60]",≤ 10
16,"Cc1cc(-c2ncnn2C)c2cccc(OCc3c(Cl)cc(F)cc3[C@H](C)N3C(=O)COCC3C)c2n1 (single isomer, unassigned) [compound 70]",11 to 100
17,"Cc1cc(-n2cc(F)cn2)c2cccc(OCc3c(Cl)cc(F)cc3[C@H](C)N3CC(=O)N(CC(N)=O)C3=O)c2n1 [Compound No. 1, (S)-2-(3-(1-(3-chloro-5-fluoro-2-((4-(4-fluoro-1H-pyrazol-1-yl)-2-methylquinolin-8-yloxy)methyl)phenyl)ethyl)-2,5-dioxoimidazolidin-1-yl)acetamide]",11 to 100
18,"Cc1cc(-n2cc(F)cn2)c2cccc(OCc3c(Cl)cc(F)cc3[C@H](C)N3CCNC3=O)c2n1 [Compound No. 3, (S)-1-(1-(3-chloro-5-fluoro-2-((4-(4-fluoro-1H-pyrazol-1-yl)-2-methylquinolin-8-yloxy)methyl)phenyl)ethyl)imidazolidin-2-one]",11 to 100
19,"Cc1cc(-c2ncnn2C)c2cccc(OCc3c(Cl)cc(F)cc3[C@H](C)N3CC[C@H](O)C3=O)c2n1 [Compound No. 4, (S)-1-((S)-1-(3-chloro-5-fluoro-2-((2-methyl-4-(1-methyl-1H-1,2,4-triazol-5-yl)quinolin-8-yloxy)methyl)phenyl)ethyl)-3-hydroxypyrrolidin-2-one]",≤ 10
20,"Cc1cc(-c2ncnn2C)c2cccc(OCc3c(Cl)cc(F)cc3[C@H](C)N3CC[C@@H](F)C3=O)c2n1 [Compound No. 5, (R)-1-((S)-1-(3-chloro-5-fluoro-2-((2-methyl-4-(1-methyl-1H-1,2,4-triazol-5-yl)quinolin-8-yloxy)methyl)phenyl)ethyl)-3-fluoropyrrolidin-2-one]",≤ 10
21,"Cc1cc(-c2ncnn2C)c2cccc(OCc3c(Cl)cc(F)cc3[C@H](C)N3C[C@@H](OC(F)F)CC3=O)c2n1 [Compound No. 6, (S)-1-((S)-1-(3-chloro-5-fluoro-2-((2-methyl-4-(1-methyl-1H-1,2,4-triazol-5-yl)quinolin-8-yloxy)methyl)phenyl)ethyl)-4-(difluoromethoxy)pyrrolidin-2-one]",11 to 100
22,"Cc1cc(-c2ncnn2C)c2cccc(OCc3c(Cl)cc(F)cc3[C@H](C)N3CCC[C@@H](O)C3=O)c2n1 [Compound No. 7, (R)-1-((S)-1-(3-chloro-5-fluoro-2-((2-methyl-4-(1-methyl-1H-1,2,4-triazol-5-yl)quinolin-8-yloxy)methyl)phenyl)ethyl)-3-hydroxypiperidin-2-one]",11 to 100
23,"Cc1cc(-c2ncnn2C)c2cccc(OCc3c(Cl)cc(F)cc3[C@H](C)N3C[C@@H](O)CCC3=O)c2n1 [Compound No. 8, (S)-1-((S)-1-(3-chloro-5-fluoro-2-((2-methyl-4-(1-methyl-1H-1,2,4-triazol-5-yl)quinolin-8-yloxy)methyl)phenyl)ethyl)-5-hydroxypiperidin-2-one]",11 to 100
24,"Cc1cc(-n2cc(F)cn2)c2cccc(OCc3c(Cl)cc(F)cc3[C@H](C)N3CCN(C)CC3=O)c2n1 [Compound No. 9, (S)-1-(1-(3-chloro-5-fluoro-2-((4-(4-fluoro-1H-pyrazol-1-yl)-2-methylquinolin-8-yloxy)methyl)phenyl)ethyl)-4-methylpiperazin-2-one]",11 to 100
25,"Cc1cc(-c2ncnn2C)c2cccc(OCc3c(Cl)cc(F)cc3[C@H](C)N3CCN(C)C(C)(C)C3=O)c2n1 [Compound No. 10, (S)-1-(1-(3-chloro-5-fluoro-2-((2-methyl-4-(1-methyl-1H-1,2,4-triazol-5-yl)quinolin-8-yloxy)methyl)phenyl)ethyl)-3,3,4-trimethylpiperazin-2-one]",11 to 100
26,"Cc1cc(-n2cc(F)cn2)c2cccc(OCc3c(Cl)cc(F)cc3[C@H](C)N3C[C@@H](C)N(C)C(=O)C3=O)c2n1 [Compound No. 11, (R)-1-((S)-1-(3-chloro-5-fluoro-2-((4-(4-fluoro-1H-pyrazol-1-yl)-2-methylquinolin-8-yloxy)methyl)phenyl)ethyl)-4,5-dimethylpiperazine-2,3-dione]",≤ 10
27,"Cc1cc(-n2cc(F)cn2)c2cccc(OCc3c(Cl)cc(F)cc3[C@H](C)N3CC(=O)N(C)[C@@H](C)C3=O)c2n1 [Compound No. 12, (S)-1-((S)-1-(3-chloro-5-fluoro-2-((4-(4-fluoro-1H-pyrazol-1-yl)-2-methylquinolin-8-yloxy)methyl)phenyl)ethyl)-3,4-dimethylpiperazine-2,5-dione]",≤ 10

# Reference: patent US12312330B2, “1-((S)-1-(3-chloro-5-fluoro-2-((4-(1h-pyrazol-1-yl)-2-methylquinolin-8-yloxy)methyl)phenyl)ethyl)-imidazolidine-2,4-dione derivatives and related compounds as bradykinin (BK) B2 receptor antagonist for treating skin diseases” (Pharvaris GmbH, priority 2019, dated 2025)
